In patent publication US8735406B2, “8-oxodihydropurine derivative” (Dainippon Sumitomo Pharma Co., Ltd., priority 2009, dated 2014):
Counter-ions that a name gives are not always drawn. Like-named read-outs stand apart in the source and are kept apart here.

Target: T1, FAAH (Rattus norvegicus, UniProt P97612)
T1 construct: Preparation of Rat Brain Membranes Preparations (FAAH Enzyme Solution); from tissue; host or cells: rat cerebrum (brain membrane preparation)
T1 sequence (P97612 1-579): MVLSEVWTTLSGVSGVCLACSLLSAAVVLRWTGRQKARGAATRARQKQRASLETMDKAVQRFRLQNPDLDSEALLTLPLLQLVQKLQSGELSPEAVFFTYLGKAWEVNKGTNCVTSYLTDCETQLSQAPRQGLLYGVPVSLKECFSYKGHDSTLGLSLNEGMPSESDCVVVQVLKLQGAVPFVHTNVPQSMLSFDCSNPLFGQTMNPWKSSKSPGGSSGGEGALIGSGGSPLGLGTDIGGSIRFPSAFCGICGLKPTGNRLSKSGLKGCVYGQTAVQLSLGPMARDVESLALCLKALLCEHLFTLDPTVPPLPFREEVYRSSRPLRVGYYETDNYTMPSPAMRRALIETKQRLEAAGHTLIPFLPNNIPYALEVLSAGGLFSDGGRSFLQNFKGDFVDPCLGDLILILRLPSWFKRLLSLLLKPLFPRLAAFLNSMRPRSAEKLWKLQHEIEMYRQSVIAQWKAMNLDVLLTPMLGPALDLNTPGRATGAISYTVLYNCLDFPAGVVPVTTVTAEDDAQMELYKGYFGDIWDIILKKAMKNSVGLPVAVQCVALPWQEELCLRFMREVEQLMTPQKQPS
Assay: Determination of FAAH inhibitory activity in rat (rat brain membrane preparations, [3H]-anandamide hydrolysis)
Format: biochemical
Conditions: rat brain membrane preparations; for IC50: read-out: FAAH Inhibition IC50
Experimental: Determination of FAAH Inhibitory Activity in Rat
The preparation of rat brain membranes preparations and the determination of FAAH inhibitory activity were carried out according to the Jonsson et al. method [Br. J. Pharmacol., 133, 1263 (2001)].
(1) Preparation of Rat Brain Membranes Preparations (FAAH Enzyme Solution)
The cerebrum was extracted from rats and was freeze-stored at −80° C. To the frozen cerebrum was added 4° C. enzyme homogenization buffer (20 mM HEPES-buffer pH 7.0, 1 mM MgCl2) and the mixture was homogenized using a homogenizer in ice and the homogenates were centrifuged (36,000×g for 20 minutes). After repeating operations of homogenization and centrifugation, the tissue pellets were re-suspended with 4° C. enzyme homogenization buffer. The re-suspensions were incubated at 37° C. for 15 minutes and were centrifuged (36,000×g for 20 minutes), and the resulting tissue membranes were then re-suspended with enzyme solution preparation buffer (50 mM Tris-HCl buffer pH 7.4, 1 mM EDTA, 3 mM MgCl2). The protein concentration in the resulting membrane preparations were determined according to a colorimetry method (BCA Protein Assay: Pierce Inc.) and the preparations were freeze-stored at −80° C. until used for assay.
(2) Screening of Substances for Inhibiting FAAH Activity
To the above membrane preparations (final concentration 100 μg/mL) were added a solution of test substances in DMSO (final concentration in DMSO 1%) and an assay buffer (for final preparation; 22 mM Tris-HCl (pH 7.6), 1.4 mM EDTA, 1.5% BSA, 0.6 mM MgCl2) and the resulting mixtures were preincubated at 37° C. for 10 minutes. Thereto was added a substrate solution (for final preparation; 2 nM [^3H]-Anandamide (American Radiolabeled Chemicals Inc.)+2 μM Anandamide (Sigma-Aldrich Co.)) (final assay volume of 200 μL) and the resulting mixtures were incubated at 37° C. for 10 minutes. Here in control experiment, DMSO was added instead of the solution of test substance in DMSO. Also in blank experiment, DMSO was added instead of the solution of test substance in DMSO and an enzyme solution preparation buffer was also added instead of the membrane preparations. After the incubation, thereto was added a 400 μL ice-cooled solution of chloroform and methanol (1:1 ratio by volume) and the resulting mixtures were stirred. An ethanolamine (ethanolamine-1-[^3H]) as a decomposed product was separated into an upper layer (water/methanol layer) by centrifugation (1,000×g for 10 minutes). The upper layer 200 μL was transferred into 96 well Deepwell Luma Plate-96 (PerkinElmer Inc.) and the radioactivity was measured by microplate scintillation counter (TopCount NXT™: […].). The substances showing a lower measured value compared to those of control were selected as the compound having a FAAH inhibitory activity.
(3) Determination of IC50 Value
The test substances were prepared such that the final concentration of the compounds is within the range of 0.1 nM to 1 μM and were then examined on the effect on FAAH activity according to the above-mentioned protocol.

[1] = at 100 nM, read-out: FAAH Inhibition Inhibition Rate at 100 nM
[2] = 100 nM test substance, read-out: FAAH Inhibition, Inhibition Rate at 100 nM

inhibition at 0.1 µM [1] [%]	IC50 [nM]	inhibition at 0.1 µM [2] [%]	IC50 (test substance 0.1 nM to 1 μM) [nM]	SMILES
115	10			CCn1c(=O)n(C(=O)N2CC(c3ccc(F)cc3)C2)c2cnc(COC)nc21 [Example 656, 9-Ethyl-7-{[3-(4-fluorophenyl)azetidin-1-yl]carbonyl}-2-(methoxymethyl)-7,9-dihydro-8H-purine-8-one]
95	12			CN(C)C(=O)n1c(=O)n(C)c2cnc(CCOc3ccc(C(F)(F)F)cc3)nc21 [Example 638, N,N,7-trimethyl-8-oxo-2-{2-[4-(trifluoromethyl)phenoxy]ethyl}-7,8-dihydro-9H-purine-9-carboxamide hydrochloric acid salt]
		105	4	COCCc1ncc2c(n1)n(C)c(=O)n2C(=O)N1CC(c2cccc(F)c2)C1 [compound 391]
		101	7	CCOc1cccc(-c2ncc3c(n2)n(C)c(=O)n3C(=O)N2CCCC2)c1 [compound 175]
		80	94	CN(C)C(=O)n1c(=O)n(C)c2cnc(CCc3ccc(C4CC4)c(F)c3)nc21 [compound 524]
		97	44	Cn1c(=O)n(C(=O)N2CCCC2)c2cnc(-c3ccc(-c4ccccc4)cc3)nc21 [compound 179]
		99	17	Cn1c(=O)n(C(=O)N2CCC2)c2nc(-c3ccc(OCC(F)F)cc3)ncc21 [compound 368]
		100	6	Cn1c(=O)n(C(=O)N2CCCC2)c2cnc(-c3ccc(F)c(F)c3)nc21 [compound 190]
87	27			CCCn1c(=O)n(C(=O)N(C)C)c2nc(CCc3ccc(F)cc3)ncc21 [Example 648, 2-[2-(4-Fluorophenyl)ethyl]-N,N-dimethyl-8-oxo-7-propyl-7,8-dihydro-9H-purine-9-carboxamide]
		102	10	Cn1c(=O)n(C(=O)N2CCC2)c2nc(CCc3ccc(Cl)cc3)ncc21 [compound 575]

The next lines start with the compound.

SMILES	inhibition at 0.1 µM [1] [%]	IC50 [nM]	inhibition at 0.1 µM [2] [%]	IC50 (test substance 0.1 nM to 1 μM) [nM]
COc1cccc(-c2ncc3c(n2)n(C)c(=O)n3C(=O)N(C)CCc2ccc(Cl)c(Cl)c2)c1 [Example 105, N-[2-(3,4-Dichlorophenyl)ethyl]-2-(3-methoxyphenyl)-N,9-dimethyl-8-oxo-8,9-dihydro-7H-purine-7-carboxamide]			108	1
COC(=O)CN(C)C(=O)n1c(=O)n(C)c2nc(-c3ccccc3)ncc21 [Example 38]			73	76
CN(C)C(=O)n1c(=O)n(C)c2cnc(CCCOc3ccc(C(F)(F)F)cc3)nc21 [Example 394, N,N,7-trimethyl-8-oxo-2-{3-[4-(trifluoromethyl)phenoxy]propyl}-7,8-dihydro-9H-purine-9-carboxamide hydrochloric acid salt]			94	7
COCc1ncc2c(n1)n(C)c(=O)n2C(=O)N1CC[C@@H](Oc2ccc(F)cc2)C1 [Example 480, 7-{[(3R)-3-(4-Fluorophenoxy)pyrrolidin-1-yl]carbonyl}-2-(methoxymethyl)-9-methyl-7,9-dihydro-8H-purine-8-one]			88	83
Cn1c(=O)n(C(=O)N2CCCC2)c2nc(-c3ccc(C(F)(F)F)cc3)ncc21 [Example 235, 7-Methyl-9-(pyrrolidin-1-ylcarbonyl)-2-[4-(trifluoromethyl)phenyl]-7,9-dihydro-8H-purine-8-one]			98	39
COCCCc1ncc2c(n1)n(C)c(=O)n2C(=O)N1CC(c2ccccc2)C1 [Example 383]			65	14
Cc1cccc(Cc2ncc3c(n2)n(C(=O)N2CCCC2)c(=O)n3C)c1 [Example 294, 7-Methyl-2-(3-methylbenzyl)-9-(pyrrolidin-1-ylcarbonyl)-7,9-dihydro-8H-purine-8-one]			93	37
Cn1c(=O)n(C(=O)N2CCC2)c2nc(CCc3ccc(OCC(F)F)cc3)ncc21 [Example 593, 9-(Azetidin-1-ylcarbonyl)-2-{2-[4-(2,2-difluoroethoxy)phenyl]ethyl}-7-methyl-7,9-dihydro-8H-purine-8-one]			58	59
Cn1c(=O)n(C(=O)N2CCCC2)c2cnc(-c3cccc(F)c3)nc21 [Example 167, 2-(3-Fluorophenyl)-9-methyl-7-(pyrrolidin-1-ylcarbonyl)-7,9-dihydro-8H-purine-8-one]			101	6
CN(CCc1ccc(Cl)cc1)C(=O)n1c(=O)n(C)c2nc(C3CCCCC3)ncc21 [Example 156, N-[2-(4-Chlorophenyl)ethyl]-2-cyclohexyl-N,9-dimethyl-8-oxo-8,9-dihydro-7H-purine-7-carboxamide]			96	10
COc1cccc(-c2ncc3c(n2)n(C)c(=O)n3C(=O)N2CCC(COc3ccccc3)CC2)c1 [Example 101, 2-(3-Methoxyphenyl)-9-methyl-7-{[4-(phenoxymethyl)piperidin-1-yl]carbonyl}-7,9-dihydro-8H-purine-8-one]			102	7
CSc1ccc(-c2ncc3c(n2)n(C)c(=O)n3C(=O)N2CCCC2)cc1 [Example 183, 9-Methyl-2-[4-(methylsulfanyl)phenyl]-7-(pyrrolidin-1-ylcarbonyl)-7,9-dihydro-8H-purine-8-one]			101	3
Cn1c(=O)n(C(=O)N2CCCC2)c2cnc(Cc3ccc(-c4ccccc4)cc3)nc21 [Example 265, 2-(Biphenyl-4-ylmethyl)-9-methyl-7-(pyrrolidin-1-ylcarbonyl)-7,9-dihydro-8H-purine-8-one]			98	9
Cn1c(=O)n(C(=O)N2CCCC2)c2cnc(CCc3ccccc3)nc21 [Example 11, 9-Methyl-2-(2-phenylethyl)-7-(pyrrolidin-1-ylcarbonyl)-7,9-dihydro-8H-purine-8-one]			79	66
Cn1c(=O)n(C(=O)N2CCCC2)c2nc(Cc3cc(F)cc(F)c3)ncc21 [Example 299, 2-(3,5-Difluorobenzyl)-7-methyl-9-(pyrrolidin-1-ylcarbonyl)-7,9-dihydro-8H-purine-8-one]			100	37
COc1ccc(-c2ncc3c(n2)n(C(=O)N2CCC2)c(=O)n3C)cc1 [Example 356, 9-(Azetidin-1-ylcarbonyl)-2-(4-methoxyphenyl)-7-methyl-7,9-dihydro-8H-purine-8-one]			72	95
Cn1c(=O)n(C(=O)N2CCCC2)c2cnc(-c3ccnc(Cl)c3)nc21 [Example 214, 2-(2-Chloropyridin-4-yl)-9-methyl-7-(pyrrolidin-1-ylcarbonyl)-7,9-dihydro-8H-purine-8-one]			99	18
Cc1ccc(OCCCc2ncc3c(n2)n(C(=O)N(C)C)c(=O)n3C)cc1 [Example 396]			52	78
